According to paper PMC9103758 (International Journal of Molecular Sciences, 2022):

Experiments:
[1] = target: T1, ANO1 (Homo sapiens, UniProt Q5XXA6, DEL476-501); assay: YFP fluorescence quenching assay for ANO1 activity in FRT-ANO1 cells; type: cell-based; conditions: ATP 100 μM, n = 4
T1 construct: expressed in transfected cells; host or cells: Fisher rat thyroid (FRT) cells; The YFP assay uses FRT-ANO1-YFP cells, which also carry the halide sensor
T1 sequence (Q5XXA6 with tags, fused parts or gaps isoform Q5XXA6-5 DEL539-564): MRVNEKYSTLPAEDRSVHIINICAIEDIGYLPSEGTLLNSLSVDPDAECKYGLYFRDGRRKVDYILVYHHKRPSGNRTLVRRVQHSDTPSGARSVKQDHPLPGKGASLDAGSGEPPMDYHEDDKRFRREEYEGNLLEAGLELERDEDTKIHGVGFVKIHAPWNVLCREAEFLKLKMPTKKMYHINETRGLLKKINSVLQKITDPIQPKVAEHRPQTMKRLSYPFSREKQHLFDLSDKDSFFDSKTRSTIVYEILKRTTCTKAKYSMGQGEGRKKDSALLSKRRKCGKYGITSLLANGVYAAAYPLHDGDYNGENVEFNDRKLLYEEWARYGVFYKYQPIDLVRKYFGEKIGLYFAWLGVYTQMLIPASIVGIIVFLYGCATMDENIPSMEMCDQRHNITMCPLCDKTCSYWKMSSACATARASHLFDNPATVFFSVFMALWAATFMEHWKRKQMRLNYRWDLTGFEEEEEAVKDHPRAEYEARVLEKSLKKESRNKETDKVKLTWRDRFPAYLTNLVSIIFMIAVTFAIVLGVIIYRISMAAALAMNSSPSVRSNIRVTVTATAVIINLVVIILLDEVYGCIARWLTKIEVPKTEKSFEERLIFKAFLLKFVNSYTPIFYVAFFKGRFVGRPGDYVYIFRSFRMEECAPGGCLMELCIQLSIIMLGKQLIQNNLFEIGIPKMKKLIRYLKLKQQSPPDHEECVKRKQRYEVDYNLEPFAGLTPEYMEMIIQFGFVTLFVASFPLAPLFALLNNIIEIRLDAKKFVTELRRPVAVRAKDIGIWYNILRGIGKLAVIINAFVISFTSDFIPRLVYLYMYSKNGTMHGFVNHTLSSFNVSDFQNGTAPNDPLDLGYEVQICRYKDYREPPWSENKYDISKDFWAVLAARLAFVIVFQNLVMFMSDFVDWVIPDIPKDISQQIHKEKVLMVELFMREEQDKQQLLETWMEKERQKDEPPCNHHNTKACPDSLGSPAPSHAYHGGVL
Method: Figure 2 Inhibitory effects of VI-101, VI-201 and VI-301 on VRAC and ANO1. (A–C) Representative YFP fluorescence traces for VRAC activity. LN215 cells were treated with the indicated concentrations of VI-101, VI-201 and VI-301 with hypotonic solution for 5 min. (D) Dose-response curve of VRAC inhibition (mean ± S.E., n = 4). (E–G) Representative YFP fluorescence traces for ANO1 activity. […]. (H) Dose-response curve of ANO1 inhibition (mean ± S.E., n = 4).
Human ANO1(abc) expressing Fisher rat thyroid (FRT) cells, ANO2 expressing FRT cells, and human CFTR expressing FRT cells were cultured as described in a previous study. LN215 cells were stably transfected with the halide sensor YFP-F46L/H148Q/I152 and NIH-3T3 cells cultured in DMEM were supplemented with 10% FBS, 2 mM L-glutamine, 100 units/mL penicillin, and 100 μg/mL streptomycin. HEK293T cells were stably transfected with the human Kv11.1 (hERG) and cultured in DMEM supplemented with 10% FBS, 2 mM L-glutamine, 100 units/mL penicillin, and 100 μg/mL streptomycin. PC3, HT29, and HeLa cells were stably transfected with the halide sensor YFP-F46L/H148Q/I152 and cultured in RPMI 1640 supplemented with 10% FBS, 2 mM L-glutamine, 100 units/mL penicillin, and 100 μg/mL streptomycin. […]

[2] = target: T2, human ANO2 (Homo sapiens, UniProt Q9NQ90); assay: YFP fluorescence quenching assay in FRT cells expressing human ANO2; type: cell-based; conditions: FRT cells expressing human ANO2, up to 10 μM
T2 construct: expressed in transfected cells; host or cells: Fisher rat thyroid (FRT) cells
T2 sequence (Q9NQ90 1-998): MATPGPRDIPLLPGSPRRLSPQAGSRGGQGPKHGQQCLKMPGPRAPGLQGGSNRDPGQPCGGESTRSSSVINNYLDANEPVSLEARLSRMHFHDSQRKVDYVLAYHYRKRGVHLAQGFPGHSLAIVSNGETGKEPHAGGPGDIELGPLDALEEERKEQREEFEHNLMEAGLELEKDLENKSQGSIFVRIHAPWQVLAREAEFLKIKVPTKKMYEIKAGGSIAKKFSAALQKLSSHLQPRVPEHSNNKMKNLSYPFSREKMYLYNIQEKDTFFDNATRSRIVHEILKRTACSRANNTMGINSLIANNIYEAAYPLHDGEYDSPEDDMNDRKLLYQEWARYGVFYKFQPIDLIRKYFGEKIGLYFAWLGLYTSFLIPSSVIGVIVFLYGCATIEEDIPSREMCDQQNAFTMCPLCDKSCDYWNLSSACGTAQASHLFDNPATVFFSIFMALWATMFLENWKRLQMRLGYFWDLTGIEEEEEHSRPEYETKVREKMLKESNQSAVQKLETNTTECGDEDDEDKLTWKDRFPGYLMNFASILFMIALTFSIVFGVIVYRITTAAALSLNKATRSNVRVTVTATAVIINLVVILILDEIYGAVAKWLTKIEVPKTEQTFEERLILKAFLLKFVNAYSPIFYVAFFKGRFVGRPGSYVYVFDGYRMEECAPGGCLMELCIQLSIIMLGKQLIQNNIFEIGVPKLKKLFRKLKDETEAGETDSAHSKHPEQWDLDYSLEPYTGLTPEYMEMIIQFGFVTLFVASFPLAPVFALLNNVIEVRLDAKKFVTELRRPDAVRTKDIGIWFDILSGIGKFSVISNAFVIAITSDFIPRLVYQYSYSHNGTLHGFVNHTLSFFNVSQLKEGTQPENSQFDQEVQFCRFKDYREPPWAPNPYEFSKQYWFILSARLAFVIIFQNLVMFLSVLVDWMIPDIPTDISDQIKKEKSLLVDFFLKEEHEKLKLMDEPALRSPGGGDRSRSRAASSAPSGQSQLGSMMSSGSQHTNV
Method: ANO2 activity was measured using YFP fluorescence quenching assay in FRT cells expressing human ANO2.
(D) Representative YFP fluorescence traces in FRT cells expressing human ANO2.

COc1cccc(C(c2c(O)c3ccccc3oc2=O)c2c(O)c3ccccc3oc2=O)c1O [VI-116, 3,3′-((2-hydroxy-3-methoxyphenyl)methylene)bis(4-hydroxy-2H-chromen-2-one)]
IC50 [1]: 39.1 µM
effect on ANO2 activity [2]: minimal effect
